Measurements reported in patent publication US5684030A, “2-substituted benzimidazole derivatives” (American Home Products Corporation, priority 1995, dated 1997).

Experiments:
[1] = Cytotoxicity, commercial modification of the MTT assay; format: cell-based, porcine; details: pig, smooth muscle cells, medium without serum, 24 hours at 37° C., no drug = 100% viable
Protocol: To distinguish cytotoxicity from the ability of a compound to prevent proliferation, the test compounds were examined using a commercial modification of the MTT assay. Briefly, cells were grown in 24 well plates to 70-80% confluency. The cells were serum deprived for 24-48 hours prior to initiation of the experimental protocol. To insure that the MTT assay monitored toxicity rather than proliferation, the cells were incubated with […] test compound in fresh medium without serum for 24 hours at 37° C. in a humidified CO2 incubator. Upon completion of the compound treatment, MTT indicator dye was added for 4 hours at 37° C. Cells were then solubilized and aliquots from each well were transferred to a 96-well plate for analysis. Absorbance at 570 nm wavelength with a reference wavelength of 630 nm was recorded using an ELISA plate reader. Results are reported as percent viable using no drug (100% viable) and pre-solubilization (0% viable) standards.

[2] = tested on: porcine aortic smooth muscle cells; experiment: Inhibition of serum-stimulated porcine aortic smooth muscle cell proliferation (3H-thymidine); format: cell-based; details: Sus scrofa, 24-36 hours at 37° C., assayed at 1, 10, and 100 μM, read-out: Porcine Smooth Muscle Cell Antiproliferation IC50 or % Inhibition at × Concentration, Serum
Protocol: (§1) The ability of the compounds of the present invention to inhibit smooth muscle cell proliferation was established using isolated porcine aortic smooth muscle cells in a modification of the procedure of Castellot et al. J. Biol. Chem 257(19) 11256 (1982), as follows:
(§2) Fresh porcine aortas, scrupulously cleansed of fatty tissue, are rinsed in sterile phosphate-buffered saline with 2% antibiotic-antimycotic (100×) liquid (10,000 units of penicillin (base), 10,000 μg of streptomycin (base), and 25 μg of amphotericin B/mL utilizing penicillin G (sodium salt), streptomycin sulfate, and amphotericin B as Fungizone® in 0.85% saline, available from Gibco Laboratories, Grand Island Biological Co., Grand Island, N.Y.). The tissue is then digested in 10-15 mL of an enzyme solution containing collagenase type I, 165 U/mL; elastase type III, 15 U/mL; BSA, 2 mg/mL; and soybean trypsin inhibitor, 0.375 mg/mL, followed by incubation at 37° C. under 5% CO2 atmosphere for 10 to 15 minutes. After this treatment, the outer surface adventitia is removed by peeling with a forceps. The aorta is then longitudinally cut and laid open and the endothelial layer is removed by scraping.
(§3) The medial layer of cells is rinsed in the enzyme solution, and placed in a new 100 mm dish with 10 mL of enzyme solution. The medial layer of cells is minced using a fine pair of scissors and digested for 2-3 hours at 37° C. in 30 mL of fresh enzyme solution. After digestion, the medial tissue is homogenized using a sterile Pasteur pipette with a fire polished tip or an Eppendorf pipetter with a 200-1000 μL sterile pipette tip. The suspension is then centrifuged for 10 minutes at 8000 rpm and the pellet is suspended in 4-6 mL of fresh enzyme solution and plated onto 4-6 100 mm flasks with vented caps. The cells are then allowed to grow to confluence and split using 0.25% trypsin. The cells are evaluated for purity and overall quality using antibody to SMC actin.
(§4) The cells are assayed in early passage (generally passage 3-7) at sub-confluent conditions. Cultures are grown in 16 mm (24 well) multi-well culture dishes in media 199 supplemented with 10% fetal bovine serum and 2% antibiotic/antimycotic. At subconfluence, the cells are placed in a defined serum free, lymphocyte medium (AIM-V; Gibco) for 24-48 hours prior to initiating the experimental protocol.
(§5) The standard test procedure is initiated by addition of the test compound, ^3 H-thymidine and serum or a specific growth factor to the serum deprived synchronized cells. Growth factor and serum stimulations are optimized for each cell type. The test compounds are added to each well at 50 fold dilution (20 μL/well) and the plates are incubated for 24-36 hours at 37° C. in 5% CO2 atmosphere. Test compounds are dissolved in 50% ethanol and assayed at 1, 10, and 100 μM. As a control, RG 50872 (Bilder, G. A.; et al., Am. J. Cell Physiol., 1991; 260: C721) is routinely assayed under the conditions of each cell preparation at a concentration of 5 μM.
(§6) At the completion of the experiment, the plates are placed on ice, washed three times with ice cold PBS and incubated in ice cold 10% trichloroacetic acid (TCA) for 30 minutes to remove acid soluble proteins. […]
(§7) Data is quantitated by subjecting the vials to a scintillation counter, in triplicate, for both control and experimental samples. […] Data is expressed as a percent of control from which IC50 s are determined.

[3] = tested on: porcine aortic smooth muscle cells; experiment: Inhibition of PDGF-stimulated porcine aortic smooth muscle cell proliferation (3H-thymidine); format: cell-based; details: Sus scrofa; stimulated with human recombinant PDGF-AB; 24-36 hours at 37° C.; assayed at 1, 10, and 100 μM; read-out: Porcine Smooth Muscle Cell Antiproliferation IC50 or % Inhibition at × Concentration, PDGF
Protocol: as §1, §2, §3, §4, §5, §6, §7

Structure (SMILES) | viability at 24 h [1] | IC50 [2] | IC50 [3]
COC(=O)c1ccc(CSc2nc3cc([N+](=O)[O-])ccc3[nH]2)cc1 [Example 5, 4-(5-Nitro-1H-benzoimidazol-2-ylsulfanylmethyl)-benzoic acid methyl ester] | 100% | 18.2 µM | 6.17 µM
Clc1ccc(CSc2nc3ccccc3[nH]2)cc1Cl [Example 3, 2-(3,4-Dichlorobenzylsulfanyl)-1H-benzoimidazole] | 100% | 12.1 µM | 4.4 µM
O=[N+]([O-])c1ccc2[nH]c(SCc3ccc(Cl)c(Cl)c3)nc2c1 [Example 2, 2-(3,4-Dichlorobenzylsulfanyl)-5-nitro-1H-benzoimidazole] | 100% | 10 µM | 0.12 to 1 µM
Fc1cc2[nH]c(SCc3ccc(Cl)c(Cl)c3)nc2cc1Cl [Example 1, 5(6)-Chloro-2-(3,4-dichlorobenzylsulfanyl)-6(5)-fluoro-1H-benzoimidazole] | 100% | 23.3 µM | 0.06 to 0.61 µM
COC(=O)c1ccc(CSc2nc3ccccc3[nH]2)cc1 [Example 4, 4-(1H-Benzoimidazol-2-ylsulfanylmethyl)-benzoic acid methyl ester] | 100% | 1.53 µM | 3.74 µM
